For data set [1] the following is noted: dihydrate from slurry of the compound in water, disclosed in WO 2007/007041; cited from earlier work.
Data set [2] is described as follows: relative stability of the crystalline forms of the compound. The format is physicochemical. To be noted: crystalline form prepared from isopropyl alcohol (IPA).

For the molecule `COC[C@H](C)Oc1cc(Oc2cnc(C(=O)N3CCC3)cn2)cc(C(=O)Nc2cnc(C)cn2)c1` [Form 3, 3-{[5-(azetidin-1-ylcarbonyl)pyrazin-2-yl]oxy}-5-{[(1S)-1-methyl-2-(methyloxy)ethyl]oxy}-N-(5-methylpyrazin-2-yl)benzamide], in data set [1], the “stability of crystalline form in the presence of water” value is on record as “most stable”. On to `COC[C@H](C)Oc1cc(Oc2cnc(C(=O)N3CCC3)cn2)cc(C(=O)Nc2cnc(C)cn2)c1` [Form 6, 3-{[5-(azetidin-1-ylcarbonyl)pyrazin-2-yl]oxy}-5-{[(1S)-1-methyl-2-(methyloxy)ethyl]oxy}-N-(5-methylpyrazin-2-yl)benzamide], for which the “stability of crystalline form relative to the other forms” value in data set [2] was “more stable”.

The values above are taken from patent US8093252B2, “Crystalline polymorphic form of glucokinase activator” (AstraZeneca AB, priority 2009, dated 2012).
